Measurements: patent US9012655B2, “Antimicrobial/adjuvant compounds and methods” (Denouamed, Inc., priority 2011, dated 2015)
≈ marks a conversion by molar mass, not a printed value.

Assays:
Assay type in all cases: cell-based
[1] = tested on: E. coli D22; experiment: MIC, NCCLS M7-A6 broth microdilution, E. coli D22; settings: Escherichia coli, D22, 16 to 20 h, 35 degrees Celsius
Outline: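 Broth microdilution per NCCLS M7-A6 in cation-adjusted Mueller-Hinton broth, doubling dilutions, inoculum 5×10^5 CFU/mL, DMSO controls included. Read after 16–20 h at 35 °C in ambient air; MIC is lowest concentration preventing visible growth.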

[2] = tested on: Ps. aeruginosa; experiment: Combination MICs for antibiotic adjuvant potential; settings: compound at 125 μM
Protocol: (§1) Susceptibilities to the compounds were determined using the National Committee for Clinical Laboratory Standards (NCCLS) M7-A6 broth microdilution method. Cation-adjusted Mueller-Hinton broth (Ca^2+, 25 μg/mL; Mg^2+, 12.5 μg/mL) microdilution panels were prepared to contain antimicrobial doubling dilution concentrations of an appropriate range. DMSO (dimethylsulfoxide) controls were incorporated into the panel to mimic the quantity of DMSO used in dissolving some of the compounds at the higher concentrations. Each final panel well volume was 100 μL with a bacterial inoculum of 5×10^5 CFU (colony forming units)/mL of the relevant bacterium. Panels were read following 16 to 20 h of incubation at 35 degrees Celsius in ambient air. The MIC (minimum inhibitory concentration) was defined as the lowest concentration of antimicrobial inhibiting visible growth.
Generally following the procedure of Example 9, MICs of ampicillin, erythromycin, and azithromycin were determined against Ps. aeruginosa. Parallel to this effort, solutions were prepared which were identical. To each of these were added 0.5 μL of stock solution of a given compound of the present invention, then diluted to produce a final concentration of 125 μM, 60 μM, and/or 30 μM for determination of adjuvant activity. Compounds were determined to be antibiotic adjuvants if the mixture produced a lower MIC than that of the antibiotic agent alone.

[3] = tested on: Enterococcus faecalis ATCC29212; experiment: MIC panel of challenge pathogens (CLSI); settings: Enterococcus faecalis ATCC29212
Outline: (§2)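 Broth microdilution per CLSI guidelines. Final inoculum 2-8×10^5 CFU/ml, compounds serially two-fold diluted from 128 mg/L top concentration. Incubated in the dark at 30-37° C for 24-48 h, aerobic or anaerobic as appropriate. MIC read visually as 100% inhibition endpoint; MIC50 and MIC80 also reported.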

[4] = tested on: Enterococcus faecium ATCC700221; experiment: MIC panel of challenge pathogens (CLSI); settings: Enterococcus faecium ATCC700221
Outline: as §2

[5] = tested on: Staphylococcus aureus AUR131 007035; experiment: MIC panel of challenge pathogens (CLSI); settings: AUR131007035, Staphylococcus aureus AUR131 007035
Outline: as §2

[6] = tested on: Staphylococcus aureus AUR59 7005; experiment: MIC panel of challenge pathogens (CLSI); settings: AUR597005, Staphylococcus aureus AUR59 7005
Outline: as §2

[7] = tested on: Staphylococcus aureus AUR60 7005; experiment: MIC panel of challenge pathogens (CLSI); settings: AUR607005, Staphylococcus aureus AUR60 7005
Outline: as §2

[8] = tested on: Staphylococcus aureus NRS1 (ATCC700699); experiment: MIC panel of challenge pathogens (CLSI); settings: Staphylococcus aureus NRS1 (ATCC700699)
Outline: as §2

[9] = tested on: Staphylococcus aureus NRS2 (ATCC700698); experiment: MIC panel of challenge pathogens (CLSI); settings: Staphylococcus aureus NRS2 (ATCC700698)
Outline: as §2

[10] = tested on: Staphylococcus aureus NRS383; experiment: MIC panel of challenge pathogens (CLSI); settings: Staphylococcus aureus NRS383
Outline: as §2

[11] = tested on: Staphylococcus aureus NRS384; experiment: MIC panel of challenge pathogens (CLSI); settings: Staphylococcus aureus NRS384
Outline: as §2

[12] = tested on: Staphylococcus epidermidis NRS122; experiment: MIC panel of challenge pathogens (CLSI); settings: Staphylococcus epidermidis NRS122
Outline: as §2

[13] = tested on: Staphylococcus epidermidis NRS7; experiment: MIC panel of challenge pathogens (CLSI); settings: Staphylococcus epidermidis NRS7
Outline: as §2

[14] = tested on: Streptococcus pneumoniae Group A; experiment: MIC against Streptococcus pneumoniae Group A; settings: initial measurement, Todd Hewitt broth
Protocol: as §1
Generally following the procedure of Example 9, but using Todd Hewitt broth (beef heart digest) rather than Mueller-Hinton broth, MICs were initially measured against Streptococcus pneumoniae Group A for compounds of the present invention as follows: […]

In the case of `CC(C)c1cc(Cl)ccc1-c1cc(-c2nnn[nH]2)sc1-c1ccc(Cl)cc1C(C)C` [DNM0548, 5-(4,5-Bis(4-chloro-2-iso-propylphenyl)thiophen-2-yl)-1H-tetrazole], the MIC [1] is reported as 60 µM (≈ 27.4 µg/mL), the “fold lower MIC for ampicillin” value [2] is reported as “up to 125 fold” and the “fold lower MIC for erythromycin” value [2] is reported as “up to 125 fold”. It also gave an MIC ([3]; read-out: 100% inhibition) of 0.25 µg/mL (≈ 0.547 µM), an MIC50 ([3]; read-out: MIC50 (50%)) of 0.25 µg/mL (≈ 0.547 µM) and an MIC80 ([3]; read-out: MIC80 (80%)) of 0.25 µg/mL (≈ 0.547 µM). It also gave an MIC ([4]; read-out: 100% inhibition) of no more than 0.25 µg/mL, an MIC50 ([4]; read-out: MIC50 (50%)) of no more than 0.25 µg/mL and an MIC80 ([4]; read-out: MIC80 (80%)) of no more than 0.25 µg/mL. It also gave an MIC ([5]; read-out: 100% inhibition) of 0.5 µg/mL (≈ 1.09 µM), an MIC50 ([5]; read-out: MIC50 (50%)) of 0.5 µg/mL (≈ 1.09 µM) and an MIC80 ([5]; read-out: MIC80 (80%)) of 0.5 µg/mL (≈ 1.09 µM). It also gave an MIC ([6]; read-out: 100% inhibition) of 0.5 µg/mL (≈ 1.09 µM), an MIC50 ([6]; read-out: MIC50 (50%)) of 0.5 µg/mL (≈ 1.09 µM) and an MIC80 ([6]; read-out: MIC80 (80%)) of 0.5 µg/mL (≈ 1.09 µM). It also gave an MIC ([7]; read-out: 100% inhibition) of 0.5 µg/mL (≈ 1.09 µM), an MIC50 ([7]; read-out: MIC50 (50%)) of 0.5 µg/mL (≈ 1.09 µM) and an MIC80 ([7]; read-out: MIC80 (80%)) of 0.5 µg/mL (≈ 1.09 µM). The MIC ([8]; read-out: 100% inhibition) was no more than 0.25 µg/mL, the MIC50 ([8]; read-out: MIC50 (50%)) was no more than 0.25 µg/mL and the MIC80 ([8]; read-out: MIC80 (80%)) was no more than 0.25 µg/mL. The MIC ([9]; read-out: 100% inhibition) was 0.5 µg/mL (≈ 1.09 µM), the MIC50 ([9]; read-out: MIC50 (50%)) was 0.5 µg/mL (≈ 1.09 µM) and the MIC80 ([9]; read-out: MIC80 (80%)) was 0.5 µg/mL (≈ 1.09 µM). It also gave an MIC ([10]; read-out: 100% inhibition) of no more than 0.25 µg/mL, an MIC50 ([10]; read-out: MIC50 (50%)) of no more than 0.25 µg/mL and an MIC80 ([10]; read-out: MIC80 (80%)) of no more than 0.25 µg/mL. For the same molecule, the MIC ([11]; read-out: 100% inhibition) was no more than 0.25 µg/mL, the MIC50 ([11]; read-out: MIC50 (50%)) was no more than 0.25 µg/mL and the MIC80 ([11]; read-out: MIC80 (80%)) was no more than 0.25 µg/mL. The MIC ([12]; read-out: 100% inhibition) was 1 µg/mL (≈ 2.19 µM), the MIC50 ([12]; read-out: MIC50 (50%)) was 1 µg/mL (≈ 2.19 µM) and the MIC80 ([12]; read-out: MIC80 (80%)) was 1 µg/mL (≈ 2.19 µM). It also gave an MIC ([13]; read-out: 100% inhibition) of 0.5 µg/mL (≈ 1.09 µM), an MIC50 ([13]; read-out: MIC50 (50%)) of 0.5 µg/mL (≈ 1.09 µM) and an MIC80 ([13]; read-out: MIC80 (80%)) of 0.5 µg/mL (≈ 1.09 µM). The MIC [14] was less than 0.25 µM.
